# Read-outs that look alike come from different tables or passages of the source.
# Assays:
# [1] = system: Staph.aureus A 2001; experiment: micro serial dilution test; assay type: cell-based, Staphylococcus aureus; settings: Staphylococcus aureus, A2001, 18 h, micro serial dilution (in brackets), about 18 hours, 30° C. or 37° C.; read-out: minimal inhibitory concentration (MIC)
# [2] = system: Bac.Subt.ATCC 6633; experiment: agar serial dilution test; assay type: cell-based, Bacillus subtilis; settings: Bacillus subtilis, ATCC6633, 24 h, agar serial dilution, 24 hours, 37° C.; read-out: minimal inhibitory concentration (MIC)
# [3] = system: Kleb.pneum. A 809; experiment: agar serial dilution test; assay type: cell-based, Klebsiella pneumoniae; settings: Klebsiella pneumoniae; agar serial dilution, 24 hours, 37° C.; read-out: minimal inhibitory concentration (MIC)
# [4] = system: Staph.aureus A 355; experiment: micro serial dilution test; assay type: cell-based, Staphylococcus aureus; settings: Staphylococcus aureus, A355; micro serial dilution (in brackets), about 18 hours, 30° C. or 37° C.; penicillinase-producing strain; read-out: minimal inhibitory concentration (MIC)
# [5] = system: Prot.morg. 2241; experiment: agar serial dilution test; assay type: cell-based; settings: 24 h, agar serial dilution, 24 hours, 37° C.; read-out: minimal inhibitory concentration (MIC)
# [6] = system: Past.multo. A 723; experiment: agar serial dilution test; assay type: cell-based, Pasteurella multocida; settings: Pasteurella multocida; agar serial dilution, 24 hours, 37° C.; read-out: minimal inhibitory concentration (MIC)
# [7] = system: Esch.coli U 20; experiment: agar serial dilution test; assay type: cell-based, Escherichia coli; settings: Escherichia coli
# [8] = system: Strep.haem A 1088; experiment: agar serial dilution test; assay type: cell-based, Streptococcus haemolyticus; settings: Streptococcus, A1088, 24 hours, 37° C., read-out: minimal inhibitory concentration (MIC)
# [9] = system: Prot.mirab. A 1200; experiment: agar serial dilution test; assay type: cell-based, Proteus mirabilis; settings: agar serial dilution, 24 hours, 37° C.; for MIC: Proteus mirabilis, 24 h, read-out: minimal inhibitory concentration (MIC)
# [10] = system: Pseud.aerug. Wyeth A 1058; experiment: agar serial dilution test; assay type: cell-based; settings: agar serial dilution, 24 hours, 37° C.; read-out: minimal inhibitory concentration (MIC)
# [11] = system: Staph.aureus A 321; experiment: agar serial dilution test; assay type: cell-based, Staphylococcus aureus; settings: Staphylococcus aureus, A321, 24 h, agar serial dilution, 24 hours, 37° C.; read-out: minimal inhibitory concentration (MIC)
# [12] = system: Dipl.pneum. L 54; experiment: agar serial dilution test; assay type: cell-based, Diplococcus pneumoniae; settings: Streptococcus pneumoniae; agar serial dilution, 24 hours, 37° C.; read-out: minimal inhibitory concentration (MIC)
# [13] = system: Prot.rettg. A 821; experiment: agar serial dilution test; assay type: cell-based, Proteus rettgeri; settings: Providencia rettgeri, 24 h, read-out: minimal inhibitory concentration (MIC)
# [14] = system: Bruc. Suis A 2126; experiment: agar serial dilution test; assay type: cell-based; settings: Brucella suis, 24 h, read-out: minimal inhibitory concentration (MIC)
# [15] = system: Staph.aureus A 355; experiment: agar serial dilution test; settings: Staphylococcus aureus, A355, 24 h, read-out: minimal inhibitory concentration (MIC), agar serial dilution, 24 hours, 37° C.; penicillinase-producing strain
# [16] = system: Staph.aureus A 2001; experiment: agar serial dilution test; assay type: cell-based, Staphylococcus aureus; settings: Staphylococcus aureus, A2001, 24 h, agar serial dilution, 24 hours, 37° C.; read-out: minimal inhibitory concentration (MIC)
# [17] = system: Staph.aureus A 2000; experiment: micro serial dilution test; assay type: cell-based, Staphylococcus aureus; settings: Staphylococcus aureus, A2000, 18 h, micro serial dilution (in brackets), about 18 hours, 30° C. or 37° C.; read-out: minimal inhibitory concentration (MIC)
# [18] = system: Actinob.equ. T 3; experiment: agar serial dilution test; assay type: cell-based; settings: 24 hours, 37° C., read-out: minimal inhibitory concentration (MIC)
# [19] = system: Salm.typh. R 172; experiment: agar serial dilution test; assay type: cell-based; settings: 24 h, read-out: minimal inhibitory concentration (MIC)
# [20] = system: Staph.aureus A 2000; experiment: agar serial dilution test; assay type: cell-based, Staphylococcus aureus; settings: Staphylococcus aureus, A2000, 24 h, agar serial dilution, 24 hours, 37° C.; read-out: minimal inhibitory concentration (MIC)
# [21] = system: Prot.mirab. L 93; experiment: agar serial dilution test; assay type: cell-based, Proteus mirabilis; settings: Proteus mirabilis
# [22] = system: Pseud.aerug. H 10; experiment: agar serial dilution test; assay type: cell-based; settings: agar serial dilution, 24 hours, 37° C.; read-out: minimal inhibitory concentration (MIC)
# [23] = system: Salm.dubl. P 43; experiment: agar serial dilution test; assay type: cell-based, Salmonella dublin; settings: Salmonella enterica; agar serial dilution, 24 hours, 37° C.; read-out: minimal inhibitory concentration (MIC)
# [24] = system: Prot.mirab. A 1200; experiment: micro serial dilution test; assay type: cell-based; settings: Proteus mirabilis; micro serial dilution (in brackets), about 18 hours, 30° C. or 37° C.; read-out: minimal inhibitory concentration (MIC)
# [25] = system: Pseud.aerug. 2396; experiment: agar serial dilution test; assay type: cell-based; settings: agar serial dilution, 24 hours, 37° C.; read-out: minimal inhibitory concentration (MIC)
# [26] = system: Prot.mirab. H 3; experiment: agar serial dilution test; assay type: cell-based, Proteus mirabilis; settings: Proteus mirabilis
# [27] = system: Strep. faec. L 80; experiment: agar serial dilution test; assay type: cell-based, Streptococcus faecalis; settings: Enterococcus faecalis; agar serial dilution, 24 hours, 37° C.; read-out: minimal inhibitory concentration (MIC)
# [28] = system: Sarc. lutea ATCC 9341; experiment: agar serial dilution test; assay type: cell-based; settings: Micrococcus luteus, ATCC9341, 24 hours, 37° C., read-out: minimal inhibitory concentration (MIC)
# [29] = acute toxicity in mice; settings: mouse, in vivo, ip; mice (Swiss), one intraperitoneal administration
# Description: (a) For sodium 7-[(3-methyl-1,2,4-oxadiazol-5-yl)-acetamido]-cephalosporanate (as prepared in Example 10), the acute toxicity was determined in mice (Swiss) with one intraperitoneal administration. The LD50 appeared to be >6000 mg/kg (Cephalotin-LD50 >6000 mg/kg).
# [30] = system: Shig.equir. T 3; experiment: agar serial dilution test; assay type: cell-based; settings: 37° C.; for MIC: 24 h, read-out: minimal inhibitory concentration (MIC)
# [31] = system: Proteus rettgeri; experiment: protection test; assay type: in vivo; settings: Providencia rettgeri, sc
# [32] = system: Bruc.melit. A 488; experiment: microbe, parasite or virus in culture; assay type: cell-based; settings: Brucella melitensis, 24 h, read-out: minimal inhibitory concentration (MIC)
# [33] = system: Staph. aureus pen.resistant; experiment: protection test; assay type: in vivo; settings: Staphylococcus aureus, sc
# [34] = system: Strep.haem. A 266; experiment: agar serial dilution test; assay type: cell-based, Streptococcus haemolyticus; settings: Streptococcus; agar serial dilution, 24 hours, 37° C.; read-out: minimal inhibitory concentration (MIC)
# [35] = system: Klebsiella pneumoniae; experiment: protection test; assay type: in vivo; settings: ip
# [36] = system: penicillin resistant Staphylococcus aureus strain; experiment: protection test; assay type: in vivo; settings: sc
# From the text: The compound may preferably be used parenterally.
# [37] = system: Kleb.pneum. A 809; experiment: micro serial dilution test; assay type: cell-based; settings: Klebsiella pneumoniae; micro serial dilution (in brackets), about 18 hours, 30° C. or 37° C.; read-out: minimal inhibitory concentration (MIC)
# [38] = system: Escherichia coli; experiment: protection test; assay type: in vivo; settings: ip
# [39] = system: Salm.typh. R 127; experiment: micro serial dilution test; assay type: cell-based; settings: micro serial dilution (in brackets), about 18 hours, 30° C. or 37° C.; read-out: minimal inhibitory concentration (MIC)
# From the text: Two drops of a stock solution of the test compound (antibiotic) in a known concentration were brought into the first hole of a test plate with 9 numbered holes with a sterile Pasteur pipette. After rinsing this pipette three times with a physiological NaCl-solution, two drops of a stock solution of the test organism in a culture medium were brought in all the holes except for hole 8. In the first hole, the solution of the tested compound had been half diluted, then by stirring the liquid in the first hole and adding two drops of this mixture to the second hole and so on until hole 8, dilutions of the test compound solution were obtained in geometrical progression. The hole 9 contained no antibiotic and served for checking the growth of the testogranism in a blank medium. The test plate was incubated at 30° C. or 37° C. for about 18 hours.
# [40] = tests with mice, blood levels and urine activity
# [41] = system: Salm.typh. R 127; experiment: agar serial dilution test; assay type: cell-based; settings: 24 h, 37° C., read-out: minimal inhibitory concentration (MIC)
# [42] = stability in refluxing slightly moist diethyl ether (thin-layer chromatography); assay type: physicochemical; settings: refluxed 24 hours, read-out: destruction to 5-methyl-1,2,4-oxadiazol-3-yl-acetic acid
# Description: Stability of 1,2,4-oxadiazol-3,5-diyl-bisacetic acid: A small sample was dissolved in slightly moist diethyl ether and the solution was refluxed for 24 hours.
# [43] = U20, agar serial dilution, 24 hours, 37° C., read-out: minimal inhibitory concentration (MIC)
# [44] = agar serial dilution, 24 hours, 37° C.
# [45] = agar serial dilution, 24 hours, 37° C., read-out: minimal inhibitory concentration (MIC)
# [46] = 24 h, read-out: minimal inhibitory concentration (MIC), agar serial dilution, 24 hours, 37° C.
Compound,MIC [1] [µg/mL],MIC [2] [µg/mL],MIC [3] [µg/mL],MIC [4] [µg/mL],MIC [5] [µg/mL],MIC [6] [µg/mL],"MIC [7, 43] [µg/mL]",MIC [9] [µg/mL],MIC [10] [µg/mL],MIC [11] [µg/mL],MIC [12] [µg/mL],"MIC [13, 44] [µg/mL]",MIC [15] [µg/mL],MIC [16] [µg/mL],MIC [20] [µg/mL],"MIC [21, 45] [µg/mL]",MIC [22] [µg/mL],MIC [23] [µg/mL],MIC [25] [µg/mL],MIC [27] [µg/mL],also measured
"Cc1nc(CC(=O)N[C@@H]2C(=O)N3C(C(=O)O)=C(CSc4nnnn4C)CS[C@H]23)no1 [41 B, 7-[5-methyl-1,2,4-oxadiazol-3-yl-acetamido]-3-[1-methyl-tetrazol-5-yl-mercaptomethyl]-3-cephem-4-carboxylic acid]",0.6,0.5,1,0.9,100,1.5,1.5,25,100,0.25,1.5,0.5,1,0.5,1,12.5,100,1.5,100,> 100,"MIC [8]: 0.5 µg/mL; MIC [14]: 1 µg/mL; MIC [17]: 0.6 µg/mL; MIC [18]: 0.5 µg/mL; MIC [19]: 1.5 µg/mL; MIC [24]: 5 µg/mL; MIC [26, 45]: 12.5 µg/mL; MIC [28]: 0.5 µg/mL"
"CC(=O)OCC1=C(C(=O)O)N2C(=O)[C@@H](NC(=O)Cc3cccs3)[C@H]2SC1 [Cephalotin, reference compound]",,0.12,0.7,,> 100,0.7,3,,> 100,0.5,0.5,,0.5,,0.5,0.6,> 100,1.5,> 100,25,"LD50 [29]: > 6000 mg/kg; MIC [30]: 1.5 µg/mL; ED50 [31]: 4.34 mg/kg; MIC [32]: 6 µg/mL; ED50 [33]: 37.6 mg/kg; MIC [34]: 0.06 µg/mL; ED50 [35]: 0.8 mg/kg; ED50 [36]: 1.3 mg/kg; MIC [37]: 0.37 µg/mL; ED50 [38]: > 300 mg/kg; MIC [13]: 12.5 µg/mL; MIC [39]: 3 µg/mL; MIC [26, 46]: 12.5 µg/mL"
"COCc1noc(CC(=O)N[C@@H]2C(=O)N3C(C(=O)O)=C(COC(C)=O)CS[C@H]23)n1 [Example 37, 7-[3-methoxymethyl-1,2,4-oxadiazol-5-yl-acetamido]-cephalosporanic acid]",0.45,0.12,3,0.9,> 100,1,,50,> 100,0.5,0.75,3,1.5,0.75,1.5,6,> 100,3,> 100,50,"MIC [30]: 3 µg/mL; minimal inhibitory concentration (MIC) ([30]; 24 hours): 6 µg/mL; MIC [34]: 0.12 µg/mL; MIC ([7]; U20, 24 h, read-out: minimal inhibitory concentration (MIC), agar serial dilution, 24 hours, 37° C.): 12.5 µg/mL; minimal inhibitory concentration (MIC) [9]: 100 µg/mL; ED50 ([36]; protection test, subcutanal administration, read-out: ED50): 1.2 mg/kg; MIC [13]: 12.5 µg/mL; MIC [17]: 0.6 µg/mL; MIC [21, 46]: 12.5 µg/mL; blood levels (in words) [40]: good blood levels; urine activity against pathogenic germs (in words) [40]: strong urine activity against pathogenic germs; MIC [41]: 12.5 µg/mL; MIC [26, 45]: 25 µg/mL"
"O=C(O)Cc1noc(CC(=O)O)n1 [Example 39, 1,2,4-oxadiazole-3,5-diyl-bisacetic acid]",,,,,,,,,,,,,,,,,,,,,degraded at 24 h [42]: < 5%
